Measured values from patent US7199121B2, “Protein tyrosine phosphatase inhibitor” (Institute of Molecular and Cell Biology, priority 2000, dated 2007).

Columns and labels:
εD1D2 = εD1D2 (Homo sapiens, UniProt P23469); assay: Phosphatase assay (pNPP dephosphorylation), PTPε D1D2; details: for percentage activity of εD1D2 relative to control: 1 μM compound, phosphatase 1.0 nM, pNPP, average of three enzyme preparations ± S.D.
Protocol: (§1) All other PTPs described in the text were purchased from New England Biolabs. Dephosphorylation of pNPP was measured in 450 μL reactions containing 50 mM sodium acetate (pH 5.5, or pH 7 for CIP), 0.5 mg/mL BSA, 0.5 μM dithiothreitol, and 2 mM pNPP. Reactions with IPP also contained 2 mM Mn^2+. […] All reactions were carried out at 30° C. and terminated during the linear portion of the reaction.
(§2) [nM] refers to the concentration of phosphatase assayed. The numbers indicate percentage activities relative to respective control reactions without addition of 3, 4, or Na3VO4. The numbers represent the average of the activities measured with three separate enzyme preparations, each of which was assayed in duplicate±S.D.

λPP = molecular target: T1, λPP (Escherichia phage lambda, UniProt P03772); assay: Phosphatase assay (pNPP dephosphorylation), λPP; details: for percentage activity of λPP relative to control: 1 μM compound, phosphatase 5.0 nM, pNPP, average of three enzyme preparations ± S.D.
T1 sequence (P03772 1-221): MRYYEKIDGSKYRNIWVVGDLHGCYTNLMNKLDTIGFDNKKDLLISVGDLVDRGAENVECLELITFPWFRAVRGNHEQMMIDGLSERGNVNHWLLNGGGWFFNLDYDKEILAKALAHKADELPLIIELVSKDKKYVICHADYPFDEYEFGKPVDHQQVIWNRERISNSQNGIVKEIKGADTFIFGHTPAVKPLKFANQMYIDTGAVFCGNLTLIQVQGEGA
Protocol: as §1, §2

CIP = assay: Phosphatase assay (pNPP dephosphorylation, pH 7), CIP; details: for percentage activity of CIP relative to control: 1 μM compound, phosphatase 0.5 nM, pNPP, pH 7, average of three enzyme preparations ± S.D.; for effect on pNPP phosphatase activity of CIP: neutral pH
Protocol: as §1, §2

LAR-D1 = molecular target: T2, LAR-D1 (Homo sapiens, UniProt P10586); assay: Phosphatase assay (pNPP dephosphorylation), LAR-D1; details: for percentage activity of LAR-D1 relative to control: 1 μM compound, phosphatase 5.0 nM, pNPP, average of three enzyme preparations ± S.D.
T2 sequence (P10586 1352-1607 limits assumed): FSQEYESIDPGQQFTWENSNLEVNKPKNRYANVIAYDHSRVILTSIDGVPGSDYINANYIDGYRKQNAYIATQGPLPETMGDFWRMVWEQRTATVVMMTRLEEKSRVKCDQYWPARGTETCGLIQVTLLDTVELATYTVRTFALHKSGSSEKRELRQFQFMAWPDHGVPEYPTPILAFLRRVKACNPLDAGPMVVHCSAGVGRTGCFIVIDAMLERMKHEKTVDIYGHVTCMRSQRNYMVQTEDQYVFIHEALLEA
Protocol: (§3) Dephosphorylation of pNPP was measured in 450 μL reactions containing 50 mM sodium acetate (pH 5.5, or pH 7 for CIP), 0.5 mg/mL BSA, 0.5 μM dithiothreitol, and 2 mM pNPP. Reactions with IPP also contained 2 mM Mn^2+. […] All reactions were carried out at 30° C. and terminated during the linear portion of the reaction.
as §2

αD1D2 = αD1D2 (Homo sapiens, UniProt P18433); assay: Phosphatase assay (pNPP dephosphorylation), PTPα D1D2; details: for percentage activity of αD1D2 relative to control: 1 μM compound, phosphatase 5.0 nM, pNPP, average of three enzyme preparations ± S.D.
Sequence of αD1D2 (P18433 175-802): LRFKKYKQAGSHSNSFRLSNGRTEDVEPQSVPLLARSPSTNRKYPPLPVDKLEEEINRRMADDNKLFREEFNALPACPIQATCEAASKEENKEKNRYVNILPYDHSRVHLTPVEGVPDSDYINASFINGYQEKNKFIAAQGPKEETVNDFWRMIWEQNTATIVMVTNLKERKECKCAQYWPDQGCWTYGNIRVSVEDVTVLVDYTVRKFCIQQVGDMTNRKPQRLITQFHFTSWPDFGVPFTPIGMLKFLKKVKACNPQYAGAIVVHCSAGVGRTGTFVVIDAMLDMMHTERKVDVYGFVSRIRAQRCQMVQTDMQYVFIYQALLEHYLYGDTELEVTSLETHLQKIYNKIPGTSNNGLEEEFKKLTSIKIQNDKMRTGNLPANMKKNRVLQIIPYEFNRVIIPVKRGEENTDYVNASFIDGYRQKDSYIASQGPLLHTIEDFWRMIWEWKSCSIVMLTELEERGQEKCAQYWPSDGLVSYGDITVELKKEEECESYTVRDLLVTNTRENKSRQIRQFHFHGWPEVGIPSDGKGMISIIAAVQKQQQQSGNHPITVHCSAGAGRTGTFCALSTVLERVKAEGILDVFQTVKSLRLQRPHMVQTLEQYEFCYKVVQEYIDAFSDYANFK
Protocol: as §1, §2

CD45 = molecular target: T3, CD45 (Homo sapiens, UniProt P08575); assay: Phosphatase assay (pNPP dephosphorylation), CD45; details: for percentage activity of CD45 relative to control: 1 μM compound, phosphatase 1.0 nM, pNPP, average of three enzyme preparations ± S.D.
T3 sequence (P08575 599-1306 limits assumed): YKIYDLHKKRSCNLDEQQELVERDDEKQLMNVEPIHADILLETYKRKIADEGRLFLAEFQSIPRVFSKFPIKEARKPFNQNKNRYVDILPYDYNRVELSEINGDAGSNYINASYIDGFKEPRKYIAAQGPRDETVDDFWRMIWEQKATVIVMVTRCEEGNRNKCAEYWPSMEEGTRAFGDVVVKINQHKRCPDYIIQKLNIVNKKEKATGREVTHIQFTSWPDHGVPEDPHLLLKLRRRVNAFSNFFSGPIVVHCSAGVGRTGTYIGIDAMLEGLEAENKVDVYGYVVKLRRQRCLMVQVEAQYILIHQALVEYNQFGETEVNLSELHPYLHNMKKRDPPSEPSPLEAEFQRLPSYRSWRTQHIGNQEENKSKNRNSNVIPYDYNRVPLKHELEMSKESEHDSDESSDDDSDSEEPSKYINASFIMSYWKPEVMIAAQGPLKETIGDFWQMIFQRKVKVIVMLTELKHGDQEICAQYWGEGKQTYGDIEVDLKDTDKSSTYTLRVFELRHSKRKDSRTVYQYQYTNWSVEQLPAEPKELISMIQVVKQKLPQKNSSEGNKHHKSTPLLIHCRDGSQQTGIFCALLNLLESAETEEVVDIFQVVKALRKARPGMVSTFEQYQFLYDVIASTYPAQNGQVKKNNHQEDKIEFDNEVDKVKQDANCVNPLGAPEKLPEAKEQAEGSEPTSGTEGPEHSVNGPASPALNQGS
Protocol: as §1, §2

TCPTP = molecular target: T4, TCPTP (Homo sapiens, UniProt P17706); assay: Phosphatase assay (pNPP dephosphorylation), TCPTP; details: for percentage activity of TCPTP relative to control: 1 μM compound, phosphatase 1.0 nM, pNPP, average of three enzyme preparations ± S.D.
T4 sequence (P17706 1-317 limits assumed): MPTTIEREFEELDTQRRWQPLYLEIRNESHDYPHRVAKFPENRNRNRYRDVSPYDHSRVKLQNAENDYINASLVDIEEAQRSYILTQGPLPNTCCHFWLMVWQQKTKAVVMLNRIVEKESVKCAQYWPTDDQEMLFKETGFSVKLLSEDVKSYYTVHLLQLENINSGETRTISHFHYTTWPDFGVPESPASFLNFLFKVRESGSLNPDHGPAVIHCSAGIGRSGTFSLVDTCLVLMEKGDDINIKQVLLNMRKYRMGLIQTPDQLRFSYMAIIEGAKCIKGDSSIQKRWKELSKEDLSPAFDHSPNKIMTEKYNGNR
Protocol: as §3, §2

[1] = Stability in solution (HPLC analysis); format: physicochemical; details: for amount reduced after incubation: aqueous solution, 52° C., 4 h; for stability in solutions: water, MeOH, DMSO
Description: The structures of 1 and 2 are similar to the structure of a known pyroglutamyl peptidase inhibitor pyrizinostatin. Pyrizinostatin has the same two-ring system (compound 3) but with a ketone side chain. Both 1 and 2 are optically active. It is possible that 1 and 2 are enantioselectively synthesized by the microorganism starting from 3 and 5. […] Upon storage, and during the isolation and purification process, decomposition predominates. […] The formation of 3 was evidenced by HPLC analysis.

PTP = assay: Bioassay for PTP inhibitory activity; format: biochemical; details: for PTP inhibitory activity after prolonged storage of solution: TFA salt solution after prolonged storage; for PTP inhibitory activity of fresh solution: TFA salt, amount of 3 below 1 mole %; for PTP inhibitory activity in bioassay: isolated material, 1 and 2 contaminated with about 6-10% of 3; for effect on in vitro activity of the PTPs tested: 1 μM, receptor and non-receptor PTPs
Protocol: HTS for inhibitory activity towards PTPα was performed in 96 well plates (Nunclon). Dephosphorylation of the substrate (pNPP) was measured in 180 μL reactions/well in assay buffer containing 50 mM sodium acetate (pH 5.5), 0.5 mg/mL BSA and 0.5 mM dithiothreitol. The purified enzyme PTPα (0.3 μg/well) and extracts (5 μL in 50% methanol) were preincubated for 5–10 min at room temperature in a volume of 170 μl. Reactions were initiated by adding 10 μL of substrate in assay buffer to a final concentration of 2 mM. For each plate, 6 reference control wells containing PTPα were preincubated with 5 μL 50% methanol at the same time as the test samples. As a positive control for PTPα inhibition, 1 μM Na3VO4, a potent inhibitor of PTPs, was added to some wells. Blank wells contained 5 μL 50% methanol, 2 mM pNPP in assay buffer and no enzyme. For each set of experiments (from 2–5 plates), reference controls in a separate plate were read at different time points to check the linearity of the reaction. Reactions were stopped with 25 μL KH2PO4 after 45–60 mins incubation at room temperature. The plates were read immediately in a multilabel counter (Wallac 1420 Victor). The OD405 of the reference wells ranged between 0.7–1.2, which represents <10% conversion of the substrate and falls within the linear part of the reaction. Percentage inhibition was determined using the formula: % Inhibition=[{(OD ref−OD blank)−(OD test−OD blank)}/(OD ref−OD blank)]×100 Phosphatase Assay: […]

Solubility in solvents = format: physicochemical
Staphylococcus aureus = assay: Antimicrobial activity, Staphylococcus aureus; format: cell-based; details: 50 μM or 100 μM
Mycobacterium smegmatis = assay: Antimicrobial activity, Mycobacterium smegmatis; format: cell-based; details: 50 μM or 100 μM
Proteus vulgaris = assay: Antimicrobial activity, Proteus vulgaris; format: cell-based; details: 50 μM or 100 μM
Enterococcus faecalis = assay: Antimicrobial activity, Enterococcus faecalis; format: cell-based; details: 50 μM or 100 μM
Curvualaria sp. = assay: Antimicrobial activity, Curvualaria sp.; format: cell-based; details: 50 μM or 100 μM
Candida albicans = assay: Antimicrobial activity, Candida albicans; format: cell-based; details: 50 μM or 100 μM
Escherichia coli = assay: Antimicrobial activity, Escherichia coli; format: cell-based; details: 50 μM or 100 μM
Pseudomonas aeruginosa = assay: Antimicrobial activity, Pseudomonas aeruginosa; format: cell-based; details: 50 μM or 100 μM

Sequence of εD1D2 (P23469 70-700 limits assumed): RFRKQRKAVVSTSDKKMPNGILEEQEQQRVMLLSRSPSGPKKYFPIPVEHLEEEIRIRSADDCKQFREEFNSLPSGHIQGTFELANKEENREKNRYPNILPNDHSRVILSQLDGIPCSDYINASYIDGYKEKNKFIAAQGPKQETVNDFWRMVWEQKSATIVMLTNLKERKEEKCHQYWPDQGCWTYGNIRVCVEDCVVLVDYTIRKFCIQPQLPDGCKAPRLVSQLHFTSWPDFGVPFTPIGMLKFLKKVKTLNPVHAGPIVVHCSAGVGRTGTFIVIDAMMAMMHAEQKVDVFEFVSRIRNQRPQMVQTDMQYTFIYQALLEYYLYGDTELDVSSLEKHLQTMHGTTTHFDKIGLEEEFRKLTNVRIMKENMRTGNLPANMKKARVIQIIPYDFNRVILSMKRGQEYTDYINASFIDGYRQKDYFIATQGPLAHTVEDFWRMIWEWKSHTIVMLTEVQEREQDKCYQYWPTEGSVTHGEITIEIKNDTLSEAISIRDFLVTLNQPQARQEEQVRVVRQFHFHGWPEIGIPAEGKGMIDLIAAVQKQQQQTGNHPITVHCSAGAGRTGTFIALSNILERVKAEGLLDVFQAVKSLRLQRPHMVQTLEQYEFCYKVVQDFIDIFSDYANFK

Row | Structure (SMILES) | percentage activity of εD1D2 relative to control (εD1D2) [%] | percentage activity of λPP relative to control (λPP) [%] | percentage activity of CIP relative to control (CIP) [%] | effect on pNPP phosphatase activity of CIP (CIP) | percentage activity of LAR-D1 relative to control (LAR-D1) [%] | percentage activity of αD1D2 relative to control (αD1D2) [%] | percentage activity of CD45 relative to control (CD45) [%] | percentage activity of TCPTP relative to control (TCPTP) [%] | amount reduced after incubation [1] [%] | stability in solutions [1] | PTP inhibitory activity after prolonged storage of solution (PTP) | PTP inhibitory activity of fresh solution (PTP) | PTP inhibitory activity in bioassay (PTP) | solubility in DMSO, methanol and water (Solubility in solvents) | solubility in dichloromethane, chloroform and hexanes (Solubility in solvents) | effect on in vitro activity of the PTPs tested (PTP) | further results
1 | [Na+].[Na+].[Na+].[O]=[V]([O-])([O-])[O-] [Na3VO4, sodium orthovanadate, reference compound] | 18 ± 2.0 | 49 ± 3.0 | 98 ± 3.0 | lack of effect | 26 ± 1.0 | 24 ± 1.5 | 14 ± 0.5 | 31 ± 5.0 |  |  |  |  |  |  |  |  | 
2 | CN1N=C2N(C)C(=O)N(C)C(=O)C2(C2NC(N)=NC2=O)NC1=O (single isomer, unassigned) [Compound 1, 4a-(2-amino-5-oxo-4,5-dihydro-3H-imidazol-4-yl)-2,4,4a,8-tetrahydro-2,6,8-trimethyl-pyrimido[5,4-e]-1,2,4-triazine-3,5,7(6H)-trione] |  |  |  |  |  |  |  |  | 62 | unstable | became active | inactive | much weaker inhibitors | soluble | insoluble |  | 
3 | CN1N=C2N(C)C(=O)N(C)C(=O)C2(C2NC(N)=NC2=O)NC1=O (single isomer, unassigned) [Compound 2, 4a-(2-amino-5-oxo-4,5-dihydro-3H-imidazol-4-yl)-2,4,4a,8-tetrahydro-2,6,8-trimethyl-pyrimido[5,4-e]-1,2,4-triazine-3,5,7(6H)-trione] |  |  |  |  |  |  |  |  | 85 | unstable | became active | inactive | much weaker inhibitors | soluble | insoluble |  | 
4 | Cn1nc2c(nc1=O)c(=O)n(C)c(=O)n2C [Compound 3, 2,8-dihydro-2,6,8-trimethyl-pyrimido[5,4-e]-1,2,4-triazine-3,5,7(6H)-trione] | 17 ± 4.0 | 48 ± 2.0 | 100 ± 1.0 | neither compound had any detectable effect | 17 ± 2.0 | 17 ± 1.1 | 15 ± 2.5 | 34 ± 1.0 |  |  |  |  | potent PTP inhibitor |  |  | inhibited all the PTPs tested | inhibition at 1 µM (εD1D2; read-out: inhibition of εD1D2): 83 to 85%; antimicrobial activity against Staphylococcus aureus (Staphylococcus aureus): no antimicrobial activity; antimicrobial activity against Mycobacterium smegmatis (Mycobacterium smegmatis): no antimicrobial activity; antimicrobial activity against Proteus vulgaris (Proteus vulgaris): no antimicrobial activity; antimicrobial activity against Enterococcus faecalis (Enterococcus faecalis): no antimicrobial activity; inhibition at 1 µM (λPP; read-out: inhibition of λPP activity): ~50%; antimicrobial activity against Curvualaria sp. (Curvualaria sp.): no antimicrobial activity; antimicrobial activity against Candida albicans (Candida albicans): no antimicrobial activity; inhibition at 1 µM (LAR-D1; read-out: inhibition of LAR-D1): 83 to 85%; antimicrobial activity against Escherichia coli (Escherichia coli): no antimicrobial activity; PTP inhibition of αD1D2 at neutral pH (αD1D2; neutral pH, results not shown): continues to behave as a PTP inhibitor; inhibition at 1 µM (αD1D2; read-out: inhibition of αD1D2): 83 to 85%; antimicrobial activity against Pseudomonas aeruginosa (Pseudomonas aeruginosa): no antimicrobial activity; inhibition at 1 µM (CD45; read-out: inhibition of CD45): 83 to 85%; inhibition at 1 µM (TCPTP; read-out: inhibition of TC-PTP): ~65%
5 | Cn1nc2c(nc1=O)n(C)c(=O)n2C [Compound 4, 2,5,7-trimethyl-2,7-dihydro-5H-imidazo[4,5-e]-1,2,4-triazine-3,6-dione] | 99 ± 1.0 | 100 ± 6.0 | 99 ± 4.0 | neither compound had any detectable effect | 97 ± 1.5 | 98 ± 0.5 | 96 ± 1.0 | 99 ± 2.0 |  |  |  |  |  |  |  | negligible effects | effect on λPP activity (λPP; 1 μM): unaffected
